Data published in patent publication US20240245694A1, “Tricyclic Compounds and their Uses” (Novartis AG, priority 2022, published 2024).

Columns and labels:
DLD1-WRN-KO cells = assay: Proliferation assay DLD1-WRN-KO (CellTiterGlo, 96 hours), off-target effects; format: cell-based; settings: Homo sapiens
In short: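 Cells in RPMI-1640/10% FCS were seeded overnight (SW48 2'000, DLD1-WRN-KO 1'500 cells/well), then exposed to eight 3-fold compound dilutions at 0.1% DMSO. ATP luminescence relative to a day-0 plate gives % growth (0% stasis, −100% complete kill). GI50 is the geometric mean of ≥2 independent replicates.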

[1] = test system: SW48 colorectal xenografts; assay: Efficacy against subcutaneous SW48 colorectal xenografts; format: in vivo, Crl:NU(NCr)-Foxn1nu nude mice; settings: for % T/C / maximal regression: amorphous sodium salt; for anti-tumor effect / relapse while on treatment: p.o. qd; for anti-tumor effect: all dose levels of the study; for relapse while on treatment: time of relapse dose dependent
Experimental: (§1) Experiments were performed in female Crl:NU(NCr)-Foxn1^nu-homozygous nude mice (Charles River). Animals were housed under Optimized Hygienic Conditions in Allentown XJ cages (IVC, max. 6 mice per cage) with food and water at libitum and a 12 h:12 h light:dark cycle. Animals were allowed to acclimatize for at least 1 week before being enrolled in the experimental design. The study described here was performed according to license 1975 approved by the Basel Cantonal Veterinary Office.
Tumors were established by subcutaneous inoculation of human colorectal cancer SW48 cells (5×10^6 cells/animal in 100 μL in HBSS). SW48 human colorectal cancer cells were obtained from ATCC. The cells were cultured in RPMI-1640 medium (BioConcept Ltd., #1-41F01-1) supplemented with 10% FCS (Bio Concept #2-01F30-1), 2 mM L-glutamine (BioConcept Ltd., #5-10K50-H), 1 mM sodium pyruvate (Bio Concept #5-60F00-H) and 10 mM HEPES (Bio Concept #5-31F00-H) at 37° C. in an atmosphere of 5% CO2 in air. To establish SW48 xenografts cells were harvested and re-suspended in HBSS (Sigma, #H6648) before injecting subcutaneously 100 μL containing 5 million cells in the right flank of animals which were anaesthetized with isoflurane. Tumor size, in mm^3, was calculated following the formula: (L×W2×π/6); where W=width and L=length of the tumor. As a measure of efficacy the % T/C value is calculated at the end of the experiment according to:
Tumor regression was calculated according to: […]
Where Δtumor volumes represent the mean tumor volume on the evaluation day minus the mean tumor volume at the start of the experiment.
(§2) Amorphous sodium salt of test compound (corrected by salt factor) was dissolved in an aqueous 20% w/v solution of 2-hydroxypropyl-beta-cyclodextrin (HPBCD). A range of concentrations was prepared by serial dilution starting from the solution at highest concentration for the highest dose in the study.
(§3) Treatment was initiated about two weeks post tumor cell inoculation, when the xenografts had reached a mean volume of approximately 200 mm^3. The tumor bearing animals were randomized based on tumor volumes into experimental groups with 6 animals per group and treatment was initiated. Compounds were dosed orally (p.o.) once per day (qd) at 1, 3, 5 or 10 mg/kg (Example 18A) and at 0.1, 0.3, 1, 3 mg/kg (Example 21A). In addition, a control group treated once per day with vehicle (20% 2-hydroxypropyl-β-cyclodextrin) was included in each study. Tumor volumes and body weights were measured two times per week until the study termination.

[2] = Tolerability (body weight) in the SW48 xenograft study; format: in vivo, Crl:NU(NCr)-Foxn1nu nude mice
Experimental: as §1, §2, §3

SMILES | GI50 (DLD1-WRN-KO cells) [µM] | % T/C ([1]; 1 mg/kg p.o. qd, day 32 of the study (fourteenth day of treatment)) [%] | maximal regression ([1]; 3 mg/kg p.o. qd, day 49 of the study (thirty first day of treatment)) [%] | maximal regression ([1]; 5 mg/kg p.o. qd, day 49 (thirty first day of treatment)) [%] | maximal regression ([1]; 10 mg/kg p.o. qd, day 63 (forty fifth day of treatment)) [%] | anti-tumor effect [1] | relapse while on treatment [1] | body weight gain, of the body weight at start ([2]; 1, 3, 5 or 10 mg/kg p.o. qd, after the initial body weight loss) | initial body weight loss among individual animals ([2]; 1, 3, 5 or 10 mg/kg p.o. qd, first ten days of treatment) [%] | % T/C ([1]; 0.1 mg/kg p.o. qd, day 25 throughout 29th day of the study (tenth to fourteenth day of treatment)) [%] | % T/C ([1]; 0.3 mg/kg p.o. qd, day 29 of the study (fourteenth day of treatment), initial stasis followed by regrowth) [%] | maximal regression ([1]; 1 mg/kg p.o. qd, day 52 of the study (thirty seventh day of treatment)) [%] | maximal regression ([1]; 3 mg/kg p.o. qd, day 85 (seventieth day of the treatment)) [%] | tolerability ([2]; 0.1, 0.3, 1, 3 mg/kg p.o. qd, throughout the study) | body weight loss among individual animals on individual occasions ([2]; 0.1, 0.3, 1, 3 mg/kg p.o. qd, not dose-dependent) [%]
Cc1ncnc(C(=O)N2CCN(c3c4n(c5nc(C6=CCOCC6)nn5c3=O)[C@@H](C(=O)Nc3ccc(C(F)(F)F)cc3Cl)C[C@H]4C)C[C@H]2C)c1O [Example 18A, (7R,9R)—N-(2-chloro-4-(trifluoromethyl)phenyl)-2-(3,6-dihydro-2H-pyran-4-yl)-6-((R)-4-(5-hydroxy-6-methylpyrimidine-4-carbonyl)-3-methylpiperazin-1-yl)-7-methyl-5-oxo-5,7,8,9-tetrahydropyrrolo[1,2-c][1,2,4]triazolo[1,5-a]pyrimidine-9-carboxamide] | > 50 | 22 | 71 | 83 | 91 | Dose dependent anti-tumor effect was observed | Relapse was observed for all treatment groups | up to 18% | ≤ 14 |  |  |  |  |  | 
Cc1ncnc(C(=O)N2CCN(c3c4n(c5nc(C6=CCOCC6)nn5c3=O)[C@@H](C(=O)Nc3ccc(C(F)(F)F)cc3Cl)C[C@H]4C)[C@H]3CC[C@@H]32)c1O [Example 21A, (7R,9R)—N-(2-chloro-4-(trifluoromethyl)phenyl)-2-(3,6-dihydro-2H-pyran-4-yl)-6-((1S,6S)-5-(5-hydroxy-6-methylpyrimidine-4-carbonyl)-2,5-diazabicyclo[4.2.0]octan-2-yl)-7-methyl-5-oxo-5,7,8,9-tetrahydropyrrolo[1,2-c][1,2,4]triazolo[1,5-a]pyrimidine-9-carboxamide] | > 50 |  |  |  |  | Dose dependent anti-tumor effect was observed | no relapse was observed in three animals treated at 1 mg/kg and in entire group treated at 3 mg/kg |  |  | 50 | 0 | 75 | 99 | well tolerated | ≤ 15
